Data as given in patent US4174406A, “Terpenylaminoalkanol fish toxicants” (priority 1977, dated 1979).
In brackets after ≈: the same amount, converted by molar mass.

Key:
[1] = tested on: Largermouth bass; assay: Laboratory fish toxicity test (Table 1); assay type: in vivo, Micropterus salmoides; settings: tech, 12 C, soft water
Method: (§1) Fish were obtained from state and federal hatcheries and maintained prior to testing by a trained fish culturist. Fish of total length 2-5 cm were used in laboratory tests while for outdoor tests small fish (4-6 cm in length) and larger carp and buffalo (Ictiobus cyprinellus) were used.
(§2) In all tests 10 fish of each were exposed to selective concentrations of the toxicant. Mortalities were observed and recorded at 1,2 and 6 hours on the first day and once daily thereafter, during 96 hour exposure.
(§3) Laboratory tests were also conducted in soft water 12° C. wherein the toxicant was evaluated against fifteen species of fish including both cold and warm water varieties. In Table 1, the LC 50 toxicity values for N-(2-hydroxyethyl) digeranylamine is shown for various species. LC50 is defined as the amount (mg/liter) of toxicant required to kill 50 percent of the particular fish species at 95% confidence interval.

[2] = tested on: Goldfish; assay: Outdoor plastic pool test (Table 3); assay type: in vivo, Carassius auratus; settings: for % kill: 96 hour, 50% formulation (hydrochloride salt)
Method: (§4) N-(2-hydroxyethyl) digeranylamine was tested as a selective fish toxicant in outdoor pools stocked with various fish species and lined with black plastic using 50% water soluble formulations (hydrochloride salt). The formulation was added to each of four pools of 4,000-liter capacity at concentrations of 0.10, 0.15, 0.20, and 0.30 mg/liter. Another pool containing the same number, size, and species of fish served as a control. The test water had algal blooms, a pH of about 8.5, and a total hardness of about 200 mg/liter as CaCo3. The temperature was cool enough (15°-16°C.) to permit the use of trout.
as §1, §2
(§5) Outdoor pool tests were conducted using 50% formulation of the toxicant N-(2-hydroxyethyl) digeranylamine as indicated in Example 8. […] If selective control of white sucker and common carp is desired in an environment which includes rainbow trout, one should employ an effective concentration of toxicant which is at least as great as 0.05 mg/liter but less than 0.1 mg/liter. As a practical fishery practice in the northern United States and Canada, rainbow trout are not usually stocked in bodies of water containing the common carp species; the habitat conditions including water temperature and available oxygen of these species are usually quite different. Common carp and rainbow trout have quite different oxygen and temperature requirements and these differences generally preclude both species cohabitating under natural conditions. In this case the useful range to control common carp and white sucker can be much broader, i.e. 0.1 to 0.3 mg/liter.

[3] = tested on: Rainbow trout; assay: Outdoor plastic pool test (Table 3); assay type: in vivo, Salmo gairdneri; settings: 96 hour; for % kill: 50% formulation (hydrochloride salt)
Method: as §4, §1, §2, §5

[4] = tested on: Walleye; assay: Outdoor plastic pool test (Table 3); assay type: in vivo, Sitzostedion vitreum; settings: for % kill: 96 hour, 50% formulation (hydrochloride salt)
Method: as §4, §1, §2, §5

[5] = tested on: Grass carp; assay: Outdoor plastic pool test (Table 3); assay type: in vivo, Ctenopharyngodon idella; settings: for % kill: 96 hour, 50% formulation (hydrochloride salt)
Method: as §4, §1, §2, §5

[6] = tested on: Lake trout; assay: Laboratory fish toxicity test (Table 1); assay type: in vivo, Salvelinus namaycush; settings: tech, 12 C, soft water
Method: as §1, §2, §3

[7] = tested on: Smallmouth bass; assay: Laboratory fish toxicity test (Table 1); assay type: in vivo, Micropterus dolomieui; settings: tech, 12 C, soft water
Method: as §1, §2, §3

[8] = tested on: Dragonfly naiad; assay: Static bioassay in invertebrates (Table 2); assay type: in vivo, Macromia sp.; settings: 96 hours, tech, 17 C, soft reconstituted water 42 mg/l hardness
Method: (§6) The effect of the various toxicants on common invertebrate species was determined in a static test conducted 17° C. The invertebrates tested were collected from natural populations or purchased from commercial suppliers. They were held in soft water in fiberglass tanks in the laboratory or in outdoor plastic swimming pools. Mortality was observed during holding, and only healthy organisms were used for the toxicity tests. At least 10 organisms of nine species were exposed to each concentration in static tests.

[9] = tested on: Walleye; assay: Laboratory fish toxicity test (Table 1); assay type: in vivo, Stizostedion vitreum; settings: tech, 12 C, soft water
Method: as §1, §2, §3

[10] = tested on: Chinook, coho salmon, rainbow trout, goldfish, fathead, minnow, banded killfish, and walleye; assay: Relative resistance of fish species in laboratory tests; assay type: in vivo; settings: soft water, 12 C
Method: as §3

[11] = tested on: Largemouth bass; assay: Outdoor plastic pool test (Table 3); assay type: in vivo, Micropterus salmoides; settings: for % kill: 96 hour, 50% formulation (hydrochloride salt)
Method: as §4, §1, §2, §5

[12] = tested on: Backswimmer; assay: Static bioassay in invertebrates (Table 2); assay type: in vivo, Notonecta sp.; settings: tech, 17 C, soft reconstituted water 42 mg/l hardness
Method: as §6

[13] = tested on: Green sunfish; assay: Influence of pH on toxicity to green sunfish in soft water (Table 4); assay type: in vivo, Lepomis cyanellus; settings: tech, 12 C
Method: To determine the influence of pH of the water used on the toxicity of the terpenylaminoalkanols evaluated, experiments were conducted with green sunfish (Lepomis cyanellus) using soft water at 12° C. and chemically buffered over the range of pH 6 to pH 9.

[14] = tested on: Channel catfish; assay: Outdoor plastic pool test (Table 3); assay type: in vivo, Ictalurus punctatus; settings: for % kill: 96 hour, 50% formulation (hydrochloride salt)
Method: as §4, §1, §2, §5

[15] = tested on: Yellow perch; assay: Outdoor plastic pool test (Table 3); assay type: in vivo, Perca flavescens; settings: for % kill: 96 hour, 50% formulation (hydrochloride salt)
Method: as §4, §1, §2, §5

## CC(C)=CCC/C(C)=C/CN(C/C=C(\C)CCC=C(C)C)CCO [N-(2-hydroxyethyl) digeranylamine]
[1]; 3 hours
  LC50: 1.40 µg/mL (≈ 4.2 µM)
[1]; 6 hours
  LC50: 0.530 µg/mL (≈ 1.59 µM)
[1]; 24 hours
  LC50: 0.380 µg/mL (≈ 1.14 µM)
[1]; 96 hours
  LC50: 0.360 µg/mL (≈ 1.08 µM)
[2]; 0.10 mg/l
  % kill: 0%
[2]; 0.15 mg/l
  % kill: 0%
[2]; 0.20 mg/l
  % kill: 0%
[2]; 0.30 mg/l
  % kill: 0%
[2]; goldfish, 0.3 mg/liter, 50% formulation
  survival (in words): complete survival
[3]; 0.10 mg/l
  % kill: 100%
[3]; 0.15 mg/l
  % kill: 100%
[3]; 0.20 mg/l
  % kill: 100%
[3]; 0.30 mg/l
  % kill: 100%
[3]; above 0.10 mg/l, 50% formulation
  kill (in words): completely eliminated at all concentrations above 0.10 mg/l
[4]; 0.10 mg/l
  % kill: 0%
[4]; 0.15 mg/l
  % kill: 10%
[4]; 0.20 mg/l
  % kill: 0%
[4]; 0.30 mg/l
  % kill: 0%
[4]; walleye, 0.3 mg/liter, 50% formulation
  survival (in words): complete survival
[5]; 0.10 mg/l
  % kill: 0%
[5]; 0.15 mg/l
  % kill: 0%
[5]; 0.20 mg/l
  % kill: 0%
[5]; 0.30 mg/l
  % kill: 0%
[5]; grass carp, 0.3 mg/liter, 50% formulation
  survival (in words): complete survival
[6]; 3 hours
  LC50: 0.109 µg/mL (≈ 0.327 µM)
[6]; 6 hours
  LC50: 0.0700 µg/mL (≈ 0.21 µM)
[6]; 24 hours
  LC50: 0.0470 µg/mL (≈ 0.141 µM)
[6]; 96 hours
  LC50: 0.0570 µg/mL (≈ 0.171 µM)
[7]; 3 hours
  LC50: 1.36 µg/mL (≈ 4.08 µM)
[7]; 6 hours
  LC50: 0.480 µg/mL (≈ 1.44 µM)
[7]; 24 hours
  LC50: 0.420 µg/mL (≈ 1.26 µM)
[7]; 96 hours, 5760 min
  LC50: 0.37 µg/mL (≈ 1.11 µM)
[7]; 96 hours, listed as N-(2-hydroxyethyl) Digeranylamine, 5760 min
  LC50: 0.237 µg/mL (≈ 0.711 µM)
[8]
  LC50: 2.00 µg/mL (≈ 6 µM)
[9]; 3 hours
  LC50: 2.78 µg/mL (≈ 8.33 µM)
[9]; 6 hours
  LC50: 1.03 µg/mL (≈ 3.09 µM)
[9]; 24 hours
  LC50: 0.346 µg/mL (≈ 1.04 µM)
[9]; 96 hours
  LC50: 0.239 µg/mL (≈ 0.717 µM)
[10]
  resistance relative to carp or white suckers: more resistant to the toxicant than carp (Caprinus carpio) or white suckers (Castostmus commersoni)
[11]; 0.10 mg/l
  % kill: 0%
[11]; 0.15 mg/l
  % kill: 0%
[11]; 0.20 mg/l
  % kill: 0%
[11]; 0.30 mg/l
  % kill: 0%
[11]; largemouth bass, 0.3 mg/liter, 50% formulation
  survival (in words): complete survival
[12]; 1 hour
  LC50: 9.15 µg/mL (≈ 27.4 µM)
[12]; 3 hour
  LC50: 8.35 µg/mL (≈ 25 µM)
[12]; 6 hours
  LC50: 8.30 µg/mL (≈ 24.9 µM)
[12]; 28 hours
  LC50: 4.90 µg/mL (≈ 14.7 µM)
[12]; 96 hours
  LC50: 3.45 µg/mL (≈ 10.3 µM)
[13]; pH 6.0, 3 hours
  LC50: 6.34 µg/mL (≈ 19 µM)
[13]; pH 6.0, 6 hours
  LC50: 5.00 µg/mL (≈ 15 µM)
[13]; pH 6.0, 24 hours
  LC50: 2.84 µg/mL (≈ 8.51 µM)
[13]; pH 6.0, 96 hours
  LC50: 1.85 µg/mL (≈ 5.55 µM)
[13]; pH 7.5, 3 hours
  LC50: 2.47 µg/mL (≈ 7.4 µM)
[13]; pH 7.5, 6 hours
  LC50: 1.64 µg/mL (≈ 4.92 µM)
[13]; pH 7.5, 24 hours
  LC50: 1.00 µg/mL (≈ 3 µM)
[13]; pH 7.5, 96 hours
  LC50: 0.829 µg/mL (≈ 2.49 µM)
[13]; pH 8.0, 24 hours
  LC50: 0.520 µg/mL (≈ 1.56 µM)
[13]; pH 8.0, 96 hours
  LC50: 0.520 µg/mL (≈ 1.56 µM)
[13]; pH 9.0, 3 hours
  LC50: 0.870 µg/mL (≈ 2.61 µM)
[13]; pH 9.0, 24 hours
  LC50: 0.360 µg/mL (≈ 1.08 µM)
[13]; pH 9.0, 96 hours
  LC50: 0.268 µg/mL (≈ 0.803 µM)
[14]; 0.10 mg/l
  % kill: 0%
[14]; 0.15 mg/l
  % kill: 0%
[14]; 0.20 mg/l
  % kill: 0%
[14]; 0.30 mg/l
  % kill: 40%
[14]; channel catfish, 0.30 mg/liter and lower, 50% formulation
  survival (in words): died at 0.30 mg/liter of toxicant, but all survived lower concentrations
[15]; 0.10 mg/l
  % kill: 0%
[15]; 0.15 mg/l
  % kill: 30%
[15]; 0.20 mg/l
  % kill: 0%
[15]; 0.30 mg/l
  % kill: 50%
[15]; yellow perch, 0.30 mg/liter and lower, 50% formulation
  survival (in words): died at 0.30 mg/liter of toxicant, but all survived lower concentrations
